Key:
Format in all cases: biochemical
[1] = target: T1, FXIIa (Homo sapiens, UniProt P00748); test: Determination of Factor XIIa inhibition, chromogenic substrate S-2302 assay; details: human FXIIa alpha
T1 sequence (P00748 373-615 limits assumed): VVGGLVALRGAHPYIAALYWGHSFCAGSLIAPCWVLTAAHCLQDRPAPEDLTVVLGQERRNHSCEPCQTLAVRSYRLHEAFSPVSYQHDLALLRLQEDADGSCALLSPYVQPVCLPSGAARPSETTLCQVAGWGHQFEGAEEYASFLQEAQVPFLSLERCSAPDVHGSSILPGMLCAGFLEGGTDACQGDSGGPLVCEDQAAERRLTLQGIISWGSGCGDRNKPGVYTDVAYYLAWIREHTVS
T1 sequence (P00748 20-372 partner limits assumed): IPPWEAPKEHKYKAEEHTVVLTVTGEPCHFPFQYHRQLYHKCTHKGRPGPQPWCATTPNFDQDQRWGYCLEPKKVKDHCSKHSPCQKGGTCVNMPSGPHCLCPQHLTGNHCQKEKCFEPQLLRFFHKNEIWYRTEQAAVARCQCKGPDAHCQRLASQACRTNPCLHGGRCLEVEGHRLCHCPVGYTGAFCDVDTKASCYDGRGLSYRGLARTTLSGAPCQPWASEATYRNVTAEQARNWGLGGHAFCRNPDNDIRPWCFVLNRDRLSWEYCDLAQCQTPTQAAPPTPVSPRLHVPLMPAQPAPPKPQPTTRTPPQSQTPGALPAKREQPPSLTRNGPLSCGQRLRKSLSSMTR
In short: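 FXIIa (10 nM) preincubated with compound 10 min at 37° C. in 50 mM Tris, 137 mM NaCl pH 7.4, 5% DMSO, top concentration 500 μM, then S-2302 added ([…]). Absorbance at 405 nm read kinetically for 3 h; IC50 from initial rates, converted to Ki by Cheng-Prusoff.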

[2] = target: T2, thrombin (Homo sapiens, UniProt P00734); test: Determination of selectivity: thrombin inhibition, chromogenic substrate GPR assay; details: fold selectivity for FXIIa over thrombin
T2 construct: FXa (5 nM) and thrombin (5 nM)
In short: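 Thrombin (5 nM) preincubated with compound 10 min at 37 °C in 50 mM Tris, 137 mM NaCl, pH 7.4, 5% DMSO, then GPR substrate ([…]) added. Absorbance at 405 nm read kinetically for 3 h; IC50 from initial rates, converted to Ki via Ki=IC50/(1+[S]/Km).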

[3] = target: FXa (Homo sapiens, UniProt P00742); test: Determination of selectivity: FXa inhibition, chromogenic substrate S2765 assay; details: fold selectivity for FXIIa over FXa
In short: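 Human FXa (5 nM) preincubated with compound (top 500 μM, 5% DMSO) 10 min at 37 °C in 50 mM Tris, 137 mM NaCl pH 7.4, then S2765 ([…]) added; A405 kinetics over 3 h at 37 °C. IC50 from initial rates, converted to Ki via Cheng-Prusoff.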

FXa, sequence (P00742 235-488 limits assumed): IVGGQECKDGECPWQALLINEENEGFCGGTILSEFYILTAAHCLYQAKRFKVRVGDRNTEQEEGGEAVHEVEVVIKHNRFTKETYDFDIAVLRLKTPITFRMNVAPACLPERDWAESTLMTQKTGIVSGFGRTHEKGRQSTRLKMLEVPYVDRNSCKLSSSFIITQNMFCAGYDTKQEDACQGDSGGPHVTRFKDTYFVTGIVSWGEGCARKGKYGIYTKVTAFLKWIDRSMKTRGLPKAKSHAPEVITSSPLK
FXa, sequence (P00742 41-179 partner limits assumed): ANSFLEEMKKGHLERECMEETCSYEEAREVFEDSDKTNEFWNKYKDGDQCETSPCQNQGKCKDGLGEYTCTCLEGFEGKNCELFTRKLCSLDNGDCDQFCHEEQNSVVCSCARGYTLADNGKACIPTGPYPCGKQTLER

Structure (SMILES) | Ki [1] [nM] | Thrombin (human)/FXIIa alpha (human) [2] | FXa (human)/FXIIa alpha (human) [3]
Nc1nccc2cc(CNC(=O)[C@@H]3C[C@H](c4ccccc4)CN3C(=O)[C@H](N)CCC(=O)N3CCCC3)ccc12 [Example M05281] | 200 to 2000 | ++ (fold selectivity value of 10 to 100) | ∘
Cn1nccc1-c1ccc(C[C@@H]2C[C@@H](C(=O)NCc3ccc4c(c3)nnn4C)N(C(=O)[C@H]3C[C@@H](c4ccccc4)CN3)C2)cc1 [Example M05367] | 200 to 2000 | +++ (fold selectivity values greater than 100) | ∘∘∘
COc1ccc(C[C@@H]2C[C@@H](C(=O)NCc3ccc4c(c3)nnn4C)N(C(=O)[C@H](N)CCC(=O)N3CCC[C@H]3C#N)C2)cc1 [Example M05402] | < 200 | +++ (fold selectivity values greater than 100) | ∘∘∘
Cn1nnc2cc(CNC(=O)[C@@H]3C[C@H](c4ccccc4Oc4ccccc4)CN3C(=O)[C@H](N)CCc3ccccc3)ccc21 [Example M05174] | > 2000 | ++ (fold selectivity value of 10 to 100) | ∘∘
Cn1nnc2cc(CNC(=O)[C@@H]3CC(NCC4CCCCC4)CN3C(=O)[C@H](N)CCc3ccccc3)ccc21 (stereo partly drawn) [Example M05204] | > 2000 | ++ (fold selectivity value of 10 to 100) | ∘∘
COc1ccc(C[C@@H]2C[C@@H](C(=O)NCc3ccc4c(c3)nnn4C)N(C(=O)[C@H]3CC(c4c(C)noc4C)CN3)C2)cc1 (stereo partly drawn) [Example M05409] | > 2000 | + (fold selectivity values less than 10) | ∘∘
Cn1nnc2cc(CNC(=O)[C@@H]3C[C@@H](Cc4cccc5c4CCO5)CN3C(=O)[C@H](N)CCC(=O)N3CCCC3)ccc21 [Example M05380] | 200 to 2000 | +++ (fold selectivity values greater than 100) | ∘∘∘
COc1ccc(C[C@@H]2C[C@@H](C(=O)NCc3ccc4c(c3)nnn4C)N(C(=O)[C@@H]3NCCc4ccccc43)C2)cc1 [Example M05368] | > 2000 | ++ (fold selectivity value of 10 to 100) | ∘∘
N[C@H](CCc1ccccc1)C(=O)N1CCC[C@H]1C(=O)NCc1ccc2nccn2c1 [Example M05021] | > 2000 | + (fold selectivity values less than 10) | ∘∘
Cn1nnc2cc(CNC(=O)[C@@H]3C[C@@H](Cc4cccc(Br)c4)CN3C(=O)[C@H]3C[C@@H](c4ccccc4)CN3)ccc21 [Example M05366] | 200 to 2000 | ++ (fold selectivity value of 10 to 100) | ∘∘
Cn1nnc2cc(CNC(=O)[C@@H]3C[C@H](NC(=O)CCCc4ccccc4)CN3C(=O)[C@H](N)CCc3ccccc3)ccc21 [Example M05196] | > 2000 | ++ (fold selectivity value of 10 to 100) | ∘∘
NCc1ccc(CNC(=O)[C@@H]2C[C@H](O)CN2C(=O)[C@H](N)CCc2ccccc2)cn1 [Example M05054] | > 2000 | ++ (fold selectivity value of 10 to 100) | ∘∘
Cn1nnc2cc(CNC(=O)[C@@H]3C[C@@H](Cc4cccnc4)CN3C(=O)[C@H](N)CCC(=O)N3CCCC3)ccc21 [Example M05218] | 200 to 2000 | +++ (fold selectivity values greater than 100) | ∘∘∘
COc1ccc(C[C@@H]2C[C@@H](C(=O)NCc3ccc4c(c3)nnn4C)N(C(=O)[C@H]3CC(c4cncn4C)CN3)C2)cc1 (stereo partly drawn) [Example M05446] | > 2000 | ++ (fold selectivity value of 10 to 100) | ∘∘
COc1ccc(C[C@@H]2C[C@@H](C(=O)NCc3cc4cnccc4[nH]3)N(C(=O)C3C[C@@H](C(=O)N4CCCC4)CCN3)C2)cc1 (stereo partly drawn) [Example M00966] | < 200 | +++ (fold selectivity values greater than 100) | ∘∘∘
Cn1nnc2cc(CNC(=O)[C@@H]3CC(Cc4ccc(C(F)(F)F)cc4)CN3C(=O)[C@H](N)CCC(=O)N3CCCC3)ccc21 (stereo partly drawn) [Example M05309] | 200 to 2000 | +++ (fold selectivity values greater than 100) | ∘∘∘
COc1ccc(C[C@@H]2C[C@@H](C(=O)NCc3ccc4c(c3)nnn4C)N(C(=O)[C@H]3C[C@@H](Oc4ccccc4)CN3)C2)cc1 [Example M05351] | > 2000 | ++ (fold selectivity value of 10 to 100) | ∘∘
Cn1nnc2cc(CNC(=O)[C@@H]3C[C@H](Nc4cnccn4)CN3C(=O)[C@H](N)CCC(=O)N3CCCC3)ccc21 [Example M05243] | > 2000 | ++ (fold selectivity value of 10 to 100) | ∘∘
COc1ccc(C[C@@H]2C[C@@H](C(=O)NCc3ccc4c(c3)nnn4C)N(C(=O)C3NCCc4cc(Br)ccc43)C2)cc1 (stereo partly drawn) [Example M05470] | < 200 | +++ (fold selectivity values greater than 100) | ∘∘∘
COc1ccc(C[C@@H]2C[C@@H](C(=O)NCc3ccc4c(c3)nnn4C)N(C(=O)[C@H](N)CCC(=O)N3CCCC3)C2)cc1 [Example M05272] | < 200 | +++ (fold selectivity values greater than 100) | ∘∘∘
COc1ccc(C[C@@H]2C[C@@H](C(=O)NCc3ccc4c(c3)nnn4C)N(C(=O)[C@H]3C[C@@H](c4ccncc4)CN3)C2)cc1 [Example M05353] | > 2000 | ++ (fold selectivity value of 10 to 100) | ∘∘
Cn1nnc2cc(CNC(=O)[C@@H]3C[C@@H](Cc4cc(F)cc(F)c4)CN3C(=O)[C@H](N)CCC(=O)N3CCCC3)ccc21 [Example M05274] | 200 to 2000 | +++ (fold selectivity values greater than 100) | ∘∘∘
NCc1ccc(CNC(=O)[C@@H]2CCCN2C(=O)[C@H](N)CCc2cccnc2)cc1 [Example M00808] | > 2000 | + (fold selectivity values less than 10) | ∘∘
Cn1nnc2cc(CNC(=O)[C@@H]3CC(Cc4ccccc4C#N)CN3C(=O)[C@H](N)CCC(=O)N3CCCC3)ccc21 (stereo partly drawn) [Example M05320] | < 200 | +++ (fold selectivity values greater than 100) | ∘∘∘
COc1ccc(C[C@@H]2C[C@@H](C(=O)NCc3ccc4c(c3)nnn4C)N(C(=O)[C@H]3C[C@@H](c4ccccc4)CCN3)C2)cc1 [Example M05374] | > 2000 | ++ (fold selectivity value of 10 to 100) | ∘∘
NCc1ccc(CNC(=O)[C@@H]2C[C@@H](Cc3ccncc3)CN2C(=O)[C@H](N)CCc2ccccc2)cc1 [Example M05156] | 200 to 2000 | + (fold selectivity values less than 10) | ∘∘∘

— US12336991B2, “Factor XIIA inhibitors” (UNIVERSITY OF LEEDS, priority 2018, dated 2025)
